The subject of this assay is A. fumigatus clinical isolates. Description: MEC, CLSI broth microdilution (M38-A2), SENTRY clinical isolates. The class given is cell-based, Aspergillus fumigatus. The conditions noted are these: 153 isolates, 2014 and 2015 SENTRY. The text has this: The in vitro activity of CD101 was previously evaluated as part of the SENTRY international surveillance program using CLSI broth microdilution methodology (M38-A2, M27-A3; Pfaller, et al 2017). […] These susceptibility data were then compared graphically to CD101 plasma concentrations from studies in healthy adults, adjusted for plasma protein binding. Nonclinical efficacy in a murine model of Pneumocystis pneumonia were also considered to evaluate CD101 doses for clinical investigation of antifungal prophylaxis.
The in vitro activity of CD101 was evaluated against 153 A. fumigatus clinical isolates collected as part of the 2014 and 2015 JMI international SENTRY surveillance program. Susceptibility was determined by measuring the minimal effective concentration (MEC) values in accordance with CLSI broth microdilution guidelines (M38-A2). In vivo tissue distribution of CD101 in SD rats (N=3/time up to 5 d) after a 5 mg/kg IV CD101 dose. Plasma/tissue concentrations were measured by LC-MS/MS.

Numbered stars: 1 amine (or outer) side, 2 acyl side, 3 side chain; on linkers, the order of the positions; unused ones are H or OH. Bridge positions count the residues as written; N and C are the ends. Square brackets hold non-standard residues; d marks the D form. Peptide text beside a SMILES is read from it. * marks the point of attachment. ξ: configuration not given here. Orn(4R-OH,5R-OCH2CH2NMe3+) = C[N+](C)(C)CCO[C@@H](N[*:3])[C@H](O)C[C@H](N[*:1])C(=O)[*:2]; pTerphenylCO(4''-OnC5H11) = CCCCCOc1ccc(-c2ccc(-c3ccc(C(=O)*)cc3)cc2)cc1; hTyr(3S-OH,4S-OH) = N[C@H](C(=O)O)[C@H](O)[C@@H](O)c1ccc(O)cc1; X1 = C[C@H]1CN([*:1])C(C(=O)[*:2])C1O; Hyp = O=C(O)[C@@H]1C[C@@H](O)CN1; ξT = CC(O)C(N)C(=O)O

Regarding `CCCCCOc1ccc(-c2ccc(-c3ccc(C(=O)N[C@H]4C[C@@H](O)[C@@H](OCC[N+](C)(C)C)NC(=O)C5C(O)[C@@H](C)CN5C(=O)[C@H]([C@@H](C)O)NC(=O)[C@H]([C@H](O)[C@@H](O)c5ccc(O)cc5)NC(=O)[C@@H]5C[C@@H](O)CN5C(=O)C(C(C)O)NC4=O)cc3)cc2)cc1` (stereo partly drawn) [CD101] ({pTerphenylCO(4''-OnC5H11)}-[Orn(4R-OH,5R-OCH2CH2NMe3+)][ξT][Hyp][hTyr(3S-OH,4S-OH)]T[X1]; lactam 1-C), the MEC50 stood at 0.015 µg/mL and the MEC90 was 0.015 µg/mL.

These data come from patent US20240076347A1, “METHODS FOR PREVENTING FUNGAL INFECTIONS” (Cidara Therapeutics, Inc., priority 2016, published 2024).
